Measurements: EP0456229A2, “Arylsulfatase” (Bristol-Myers Squibb Company, priority 1990, dated 1991)
One block for each molecule: values may come before it.

What was measured:
[1] = compared with etoposide; cited from earlier work
Es-1 sulfatase [2] = assay: Substrate specificity: hydrolysis of etoposide derivatives (TLC); format: biochemical, Streptomyces griseorubiginosus S980-14; conditions: 0.6 u enzyme, 50 mM Tris-HCl pH 7.5, 37°C for 18 hours, silica gel TLC
Experimental: • (a) Optimum pH. The stock enzyme solution (0.6 u in 50 µl of 50 mM Tris-HCl, pH 7.5) was added to 100 µl each of the following buffers: 500 mM sodium acetate (pH 4.0-5.5), 500 mM Tris-maleate (pH 5.5-7.5), 500 mM Tris-HCl (pH 7.5-9.0), and 500 mM glycine-NaoH (pH 9.0-10.0). The substrate, p-nitrophenylsulfate, was dissolved in each of the above buffers (1 mg/ml). The enzyme-buffer solution (150 µl) was mixed with 50 µl of the substrate solution in the same buffer as the enzyme, and the mixture was incubated for 30 minutes at 37°C. The reaction was quenched by addition of 100 µl of 0.2 N sodium hydroxide solution. The enzyme activity in each buffer was determined spectrophotometrically by UV at 415 nm. […] The stock enzyme solution was dialyzed against water to remove salts. The dialyzed solution (10 µl) was mixed with 40 µl of 50 mM Tris-HCl buffer (pH 7.5). An aliquot (10 µl) of this solution was mixed with 40 µl each of the buffer listed in (a) and incubated for 30 minutes at 30°C. To this solution (50 µl) were added 100 µl of 500 mM Tris-HCl (pH 9.0) and 50 µl of substrate in water (1 mg/ml), and the mixture was incubated at 37°C for 30 minutes to determine the residual enzyme activity. […] Enzyme (0.6 u) in 150 µl of 50 mM Tris-HCl (pH 8.5) was incubated with p-nitrophenylsulfate in the same buffer (1 mg/ml, 50 µl) for 30 minutes at various temperatures. […] Enzyme preparations (0.6 u) in 50 mM Tris-HCl (150 µl, pH 8.5) were incubated for 15 minutes at various temperatures and then cooled in an ice bath. p-Nitrophenylsulfate in the same buffer (1 mg/ml, 50 µl) was added to the enzyme solution, and the mixture was incubated for 30 minutes at 37°C. […] Fifty µl of enzyme solution (0.6 u in 50 mM Tris-HCl, pH 8.5), 80 µl of 50 mM Tris-HCl (pH 8.5), 50 µl of p-nitrophenyl sulfate (1 mg/ml in same buffer), and 20 µl of ion (10 mM) were mixed. The solution was incubated for 30 minutes at 37°C. p-Nitrophenol released was spectrophotometrically assayed by UV at 415 nm. […] The protocol used in (e) was followed with the exception that 1 mM of an enzyme inhibitor was used instead of a metal ion. […] The protocol used in (e) was followed, except that 5 mM of a salt was used instead of 10 mM of a metal ion. […] Four etoposide derivatives were tested as substrate for the sulfatase of the invention. The substrates are: etoposide 4'-sulfate (III), 2'',3''-di-O-acetyl-etoposide-4'-sulfate (IV), etoposide 2''-sulfate (V), and etoposide 3''-sulfate (VI). […] After 18 hours, 100 µl of methanol was added, and 100 µl of sample was analyzed on a silica gel TLC plate using a solvent system consisting of chloroform-methanol (10:1 v/v). […]

Es-1 sulfatase [3] = assay: Substrate specificity: hydrolysis of BU-3285T (TLC, UV densitometry); format: biochemical, Streptomyces griseorubiginosus S980-14; conditions: 0.6 u Es-1 sulfatase, pH 8.5, 18 hours at 37°C, UV densitometry at 254 nm
Experimental: (§1) • (a) Optimum pH. The stock enzyme solution (0.6 u in 50 µl of 50 mM Tris-HCl, pH 7.5) was added to 100 µl each of the following buffers: 500 mM sodium acetate (pH 4.0-5.5), 500 mM Tris-maleate (pH 5.5-7.5), 500 mM Tris-HCl (pH 7.5-9.0), and 500 mM glycine-NaoH (pH 9.0-10.0). The substrate, p-nitrophenylsulfate, was dissolved in each of the above buffers (1 mg/ml). The enzyme-buffer solution (150 µl) was mixed with 50 µl of the substrate solution in the same buffer as the enzyme, and the mixture was incubated for 30 minutes at 37°C. The reaction was quenched by addition of 100 µl of 0.2 N sodium hydroxide solution. The enzyme activity in each buffer was determined spectrophotometrically by UV at 415 nm. […] The stock enzyme solution was dialyzed against water to remove salts. The dialyzed solution (10 µl) was mixed with 40 µl of 50 mM Tris-HCl buffer (pH 7.5). An aliquot (10 µl) of this solution was mixed with 40 µl each of the buffer listed in (a) and incubated for 30 minutes at 30°C. To this solution (50 µl) were added 100 µl of 500 mM Tris-HCl (pH 9.0) and 50 µl of substrate in water (1 mg/ml), and the mixture was incubated at 37°C for 30 minutes to determine the residual enzyme activity. […] After 18 hours, 100 µl of methanol was added, and 100 µl of sample was analyzed on a silica gel TLC plate using a solvent system consisting of chloroform-methanol (10:1 v/v). […]

Es-1 sulfatase [4] = assay: Effect of ions / EDTA treatment and Ca2+ recovery of sulfatase activity; format: biochemical, Streptomyces griseorubiginosus S980-14
Experimental: • (a) Optimum pH. The stock enzyme solution (0.6 u in 50 µl of 50 mM Tris-HCl, pH 7.5) was added to 100 µl each of the following buffers: 500 mM sodium acetate (pH 4.0-5.5), 500 mM Tris-maleate (pH 5.5-7.5), 500 mM Tris-HCl (pH 7.5-9.0), and 500 mM glycine-NaoH (pH 9.0-10.0). The substrate, p-nitrophenylsulfate, was dissolved in each of the above buffers (1 mg/ml). The enzyme-buffer solution (150 µl) was mixed with 50 µl of the substrate solution in the same buffer as the enzyme, and the mixture was incubated for 30 minutes at 37°C. The reaction was quenched by addition of 100 µl of 0.2 N sodium hydroxide solution. The enzyme activity in each buffer was determined spectrophotometrically by UV at 415 nm. […] The stock enzyme solution was dialyzed against water to remove salts. The dialyzed solution (10 µl) was mixed with 40 µl of 50 mM Tris-HCl buffer (pH 7.5). An aliquot (10 µl) of this solution was mixed with 40 µl each of the buffer listed in (a) and incubated for 30 minutes at 30°C. To this solution (50 µl) were added 100 µl of 500 mM Tris-HCl (pH 9.0) and 50 µl of substrate in water (1 mg/ml), and the mixture was incubated at 37°C for 30 minutes to determine the residual enzyme activity. […] Enzyme (0.6 u) in 150 µl of 50 mM Tris-HCl (pH 8.5) was incubated with p-nitrophenylsulfate in the same buffer (1 mg/ml, 50 µl) for 30 minutes at various temperatures. […] Enzyme preparations (0.6 u) in 50 mM Tris-HCl (150 µl, pH 8.5) were incubated for 15 minutes at various temperatures and then cooled in an ice bath. p-Nitrophenylsulfate in the same buffer (1 mg/ml, 50 µl) was added to the enzyme solution, and the mixture was incubated for 30 minutes at 37°C. […] Fifty µl of enzyme solution (0.6 u in 50 mM Tris-HCl, pH 8.5), 80 µl of 50 mM Tris-HCl (pH 8.5), 50 µl of p-nitrophenyl sulfate (1 mg/ml in same buffer), and 20 µl of ion (10 mM) were mixed. […] After 18 hours, 100 µl of methanol was added, and 100 µl of sample was analyzed on a silica gel TLC plate using a solvent system consisting of chloroform-methanol (10:1 v/v). […]

Es-1 sulfatase [5] = assay: Effect of salts on sulfatase activity; format: biochemical, Streptomyces griseorubiginosus S980-14; conditions: 5 mM of a salt, 30 minutes at 37°C, pH 8.5
Experimental: as §1

SMILES: COc1cc([C@@H]2c3cc4c(cc3[C@@H](O[C@@H]3O[C@@H]5CO[C@@H](C)O[C@H]5[C@H](O)[C@H]3O)[C@H]3COC(=O)[C@H]23)OCO4)cc(OC)c1OS(=O)(=O)O [(III), etoposide 4'-sulfate]
- cytotoxicity [1]: much less cytotoxic than etoposide itself
- substrate for the enzyme (Es-1 sulfatase [2]): are substrates

SMILES: CCCCC/C=C/C=C\C=C/C(O)C(C)C(C/C=C/C1OC(=O)C=CC1O)OS(=O)(=O)O (centres unmarked) [BU-3285T]
- conversion to its desulfated derivative (Es-1 sulfatase [3]): approximately 70%

SMILES: [Ca+2] [Ca⁺⁺]
- sulfatase activity restored (Es-1 sulfatase [4]; addition of 1 mM of Ca⁺⁺ to the EDTA treated enzyme): 95%
- sulfatase activity level (Es-1 sulfatase [4]; calcium ion concentrations over 1 mM added to EDTA treated enzyme): close to the original level

SMILES: O=C(O)CN(CCN(CC(=O)O)CC(=O)O)CC(=O)O [EDTA]
- sulfatase activity (Es-1 sulfatase [4]; enzyme treated with 10 mM of EDTA followed by dialysis against water at 4°C): disappeared

SMILES: [Cl-].[Na+] [sodium chloride]
- sulfatase activity (effect of salts) (Es-1 sulfatase [5]): strongly inhibited

Second part, the molecule after the results:

- substrate for the enzyme (Es-1 sulfatase [2]): are substrates
SMILES: COc1cc(C2c3cc4c(cc3C(OC3OC5COC(C)OC5C(OC(C)=O)C3OC(C)=O)C3COC(=O)C23)OCO4)cc(OC)c1OS(=O)(=O)O (centres unmarked) [(IV), 2'',3''-di-O-acetyl-etoposide-4'-sulfate]

- substrate for the enzyme (Es-1 sulfatase [2]): are not
SMILES: COc1cc(C2c3cc4c(cc3C(OC3OC5COC(C)OC5C(O)C3OS(=O)(=O)O)C3COC(=O)C23)OCO4)cc(OC)c1O (centres unmarked) [(V), etoposide 2''-sulfate]

- substrate for the enzyme (Es-1 sulfatase [2]): are not
SMILES: COc1cc(C2c3cc4c(cc3C(OC3OC5COC(C)OC5C(OS(=O)(=O)O)C3O)C3COC(=O)C23)OCO4)cc(OC)c1O (centres unmarked) [(VI), etoposide 3''-sulfate]

- sulfatase activity (effect of salts) (Es-1 sulfatase [5]): strongly inhibited
SMILES: O=P(O)(O)O [phosphate ion]
